Measured values published in US11383003B2, “Water soluble farnesol analogs and their use” (Kimberly-Clark Worldwide, Inc., priority 2012, dated 2022).

Assays:
C. albicans SC5314 [1] = assay: Effect of quorum sensing molecules on lag phase/growth of C. albicans in YPD broth; format: cell-based, Candida albicans; conditions: 100 μM, 37° C., 6 h
C. elegans glp4; sek1 = assay: Toxicity: death rate of C. elegans glp4; sek1 fed on E. coli OP50; conditions: for Death rate (%): 2 mM, worms fed on E. coli OP50, 25° C.
Procedure: The toxicity of the selected compounds/products were tested using the C. elegans glp4; sek1 fed on E. coli OP50 (Table 5).
Stock cultures of C. albicans SC 5314 was subcultured into 3 ml of YPD broth and incubated at 30° C. Then the overnight culture in broth was spread onto YPD agar, and incubated at 30° C. The 24 h old lawn of SC5314 was used to feed worms for 2 h at 25° C. The control were worms fed on OP50.
The worms were washed off the YPD plates and washed twice with M9 buffer. The worms were resuspended in screening media, M9 buffer with 0.3% Tween 80. The worm suspension (50 μl) was dispensed into the wells of 96-well plates, 20-30 worms/well. Aliquots (50 μl) of compounds in screening media were added to wells, 5 wells each compound. The 96 well plates were incubated at 25° C. for up to 5 days. Live and dead worms were counted during incubation, and the death rates of worms were calculated.

C. albicans SC5314 [2] = assay: Germ tube formation (GTF %) in vitro screening, GlcNAc-triggered differentiation assay; format: cell-based, Candida albicans
Procedure: Based on the results in FIG. 3, single cell suspensions of SC5314 was prepared as follows. Stock culture of C. albicans SC5314 was streaked onto YPD agar (YPDA) and incubated at 30° C. overnight. Single colonies were subcultured in YPD broth (YPDB) and incubated 30° C., 200 rpm overnight. Overnight culture in YPDB was subcultured in YPD broth again and incubated 30° C., 200 rpm 48 h. Cells were collected by centrifugation (4000 g 10 min) at 4° C., washed three times with sterile water, and then resuspended in sterile water a final concentration of 10^9 colony-forming unit/ml (cfu/ml). The suspension were stored at 4° C. at least 1 d, then subcultured into YPDB to a final concentration of 10^6 cfu/ml. After 48 h incubation, cell suspension was examined under the microscope for single cell percentage. When the single cell percentage exceeded 80%, cells were collected and washed three times with water, then resuspended in water to a final concentration of 10^9 cfu/ml, and stored at 4° C. for no more than a month.
Two approaches were taken to determine the percentage of cells with germ tubes formed (GTF %). One way was to count the total cells at the start of incubation, and count the ungerminated cells after incubation, then calculate the GTF % as (1—ungerminated cells/total cells at 0 h)*100. Another way was to store the samples at 15° C. for 20 h after incubation, then count the germinated cells and total cells after disaggregation, then calculated the GTF % as (germinated cells/total cells after storage)*100. […] Therefore, for practical purposes, the GTF % was determined by the first method, that is, GTF %=(1—ungerminated cells/total cells at 0 h)*100, for the in vitro screening discussed herein.
A screening medium, containing 11 mM imidazole buffer, 3 mM MgSO4, and 2.6 mM N-acetyl-D-glucosamine (GlcNAc) has been used to study the effect of farnesol analogs on the germ tube formation of C. albicans. Here, the germ tube formation of C. albicans in modified screening media was assessed with various concentrations of imidazole buffer (10 mM, 30 mM and 50 mM) and MgSO4 (0.5 mM, 1.5 mM and 3 mM). […] It took 2 h to 3 h for the GTF % to reach above 80%. For practical purposes, the screening medium, containing 11 mM imidazole buffer, 0.5 mM MgSO4, and 2.6 mM N-acetyl-D-glucosamine (GlcNAc) was adopted for in vitro screening the quorum sensing inhibitory effect of farnesol compounds.
The in vitro screening assay was based on the N-acetylglucosamine (GlcNAc)-triggered differentiation assay (Hornby et al., “Quorum sensing in the dimorphic fungus Candida albicans is mediated by farnesol;” Applied and Environmental Microbiology 67:2982-2992; 2001), which included 0.56 ml of 0.1 M imidazole buffer (pH 6.5), 0.15 ml of 0.1 M MgSO4, 0.13 ml of 0.1 M GlcNAc, and 4.16 ml of sterilized water. Bioassays of quorum sensing candidates were conducted by the addition of the chemical, as a solution in 100% methanol, to the bioassay media; the final concentration of methanol was no greater than 1%.

[3] = test system: C. elegans glp4; sek1 infected with C. albicans SC5314; assay: Death rate of C. elegans glp4; sek1 infected with C. albicans SC5314, 96 well plates; format: in vivo, Caenorhabditis elegans; conditions: for % change in the death rate compared to the control: 25° C.
Procedure: Caenorhabditis elegans glp4; sek1 was used as the model for […]. Breger et al. (Breger, J.; Fuchs, B. B.; Aperis, G.; Moy, T. I., Ausubel, F. M., Mylonakis, E.; “Antifungal chemical compounds identified using a C. elegans pathogenicity assay.” PLoS Pathogens 3: 168-178; 2007) reported that the glp-4 mutation rendered the strain incapable of producing progeny at 25° C., and the sek-1 mutation enhanced the sensitivity of the strain to various pathogens, thereby decreasing the time for screening assays. It was observed that no progenies was produced by the Caenorhabditis elegans glp4; sek1 strain after 3 d incubation at 25° C.
The synchronization of C. elegans was achieved by collecting the eggs and arresting the larvae at L1 stage. The commonly used bleach treatment was able to release the eggs from the adult worms. However, it was observed that the released eggs were not always able to hatch after treated with sodium hypochlorite (0.2, 0.3, 0.4, 0.5, 0.7 or 1%) for 3-5 min. A modified egg laying method was developed to synchronize worms to L1 stage. In brief, stock cultures of C. elegans glp4; sek1, maintained on Nematode Growth Media plates (NGM plates), were subcultured onto NGM plates with OP 50 and incubated at 15° C. for 6-9 days. Then a chunk (1 cm^2) of agar with gravid adults was subcultured again onto NGM plates with OP50 and incubated at 15° C. After incubation of 3-7 days, the worms were gently washed off with 3 ml of M 9 buffer on the rotating platform (100 rpm). The plate was tilted on its lid to allow the liquid and worms drain to one side of the plate. The liquid and worms were aspirated off. The plate was washed again with M9 buffer three more times to remove OP50 as much as possible. After washing, the plate was incubated at 25° C. overnight to let the eggs hatch overnight. Since there was no OP50, the larvae were arrested at the L1 stage. The live C. elegans glp4; sek1 was quite curvy; whereas the dead C. elegans glp4; sek1 tended to be straight, and in most cases the dead worms with the hyphae of C. albicans pieced through the body. The curvy shape and movement after shaking were used as the criteria for live.
The In vitro screening assay, based on the method of Tampakakis et al (Tampakakis, E.; Okoli, I.; Mylonakis, E.; “A C. elegans-based, whole animal, in vivo screen for the identification of antifungal compounds.” Nature Protocols 3:1925-1931; 2008), is described as follows:
L1 worms, which were prepared by the modified egg-laying method, were collected by centrifugation at 675 g for 30 s at room temperature, and the supernatant was removed. Worms were resuspended in M 9 buffer and inoculated on NGM agar plates with OP50, ˜1000 worms per plate. After 2-3 days incubation at 25° C., the worms were washed off with M 9 buffer for the […] assay.
The control were worms fed on OP50.

[4] = 0.4 mM to 3 mM (the tested four concentrations)
[5] = 2.0 mM, 4 days, two replicates (* three)
[6] = 2.0 mM, 5 days, two replicates (* three)
[7] = key finding, no concentration stated

SMILES	effect on the growth of C. albicans SC5314 (in words) (C. albicans SC5314 [1])	Death rate (%) (C. elegans glp4; sek1)	GTF % (mean ± SEM, n = 2) (C. albicans SC5314 [2]; 100 μM, * one replicate) [%]	GTF % (mean ± SEM, n = 2) (C. albicans SC5314 [2]; 200 μM) [%]	effect on death rate of infected C. elegans (in words) [3, 4]	% change in the death rate compared to the control ([3]; 0.4 mM, 4 days, two replicates) [%]	% change in the death rate compared to the control ([3]; 0.4 mM, 5 days, two replicates) [%]	% change in the death rate compared to the control ([3]; 1.0 mM, 4 days, two replicates) [%]	% change in the death rate compared to the control ([3]; 1.0 mM, 5 days, two replicates) [%]	% change in the death rate compared to the control [3, 5] [%]	% change in the death rate compared to the control [3, 6] [%]	% change in the death rate compared to the control ([3]; 3.0 mM, 4 days, two replicates) [%]	% change in the death rate compared to the control ([3]; 3.0 mM, 5 days, two replicates) [%]	effect on death rate of infected C. elegans (in words) [3, 7]	effect on death rate of infected C. elegans (in words) ([3]; 0.4 mM to 2 mM)	effect on death rate of infected C. elegans (in words) ([3]; 3 mM)	toxicity to C. elegans fed on E. coli OP50 (in words) (C. elegans glp4; sek1; in vivo)
OCCc1ccc(O)cc1 [tyrosol]	little effect on the growth																
CC(C)=CCC/C(C)=C/CC/C(C)=C/COC(=O)CCC(=O)OCCCCO [#2 synthesized analog]		4 ± 0.6	71.2 ± 2.9	33.9 ± 0.6	reduced the death rate significantly	−36 ± 4	−38 ± 2	−28 ± 5	−29 ± 10	−39 ± 11	−39 ± 11	−40 ± 0	−40 ± 4	significantly reduced the death rate			
CC(C)=CCC/C(C)=C/CC/C(C)=C/COC(=O)CCC(=O)O [#1 synthesized analog]		3.3 ± 1.2	55.9 ± 8.2	31.2 ± 5.0		−43 ± 8	−30 ± 2	−33 ± 5	−29 ± 11	−23 ± 4	−34 ± 11	20 ± 3	10 ± 9	significantly reduced the death rate	significantly reduced the death rate	increased the death rate	
CC(C)=CCC/C(C)=C/CC/C(C)=C/COC(=O)CCC(=O)OCCCO [#3 synthesized analog]		6	66.9 ± 1.5	32.9 ± 1.0	did not have significant effect on the death of the worms	−6 ± 7	10 ± 3	1 ± 6	3 ± 8	−12 ± 9	9 ± 10	−2 ± 2	7 ± 1				
CC(=O)OCC=C(C)CCC=C(C)CCC=C(C)C [farnesyl acetate, reference compound]		12	51.9 ± 2.1	36.8 ± 0.8	increased the death rate of the worm significantly	10 ± 6	4 ± 3	27 ± 7	15 ± 7	21 ± 5	9 ± 2	24 ± 9	7 ± 10				toxic to the worm
